The values that follow come from publication PMC6166661 (Neuropeptides, 2018).

The test system of one assay is C3aR1. The note with it: ref Cianflone et al., 2003; Murray et al., 2000; cited from earlier work.
Assay [1] has as its system isoproterenol-stimulated lipolysis. The assay is described as follows: Acute effect on isoproterenol-stimulated lipolysis. In kind it is in vivo, rat. The note with it: rats.

Turning to “ASP: des-arginine peptide generated from C3a by cleaving the C-terminal arginine residue (R77)”, the “activity at C3aR1” value in the assay with C3aR1 was “inactive”.
Consider `CC(C)NCC(O)c1ccc(O)c(O)c1` (stereo not drawn) [isoproterenol], for which the “change of plasma palmitate concentration during infusion” value in assay [1] (constant i.v. infusion 30 ng•min^−1, vs basal) is “more than doubled”. Moreover, in assay [1] (isoproterenol infusion plus saline bolus (control group)), the “plasma palmitate concentration at end of experiment, of the initial value” was ~ 75%.
